Source: patent publication US9487502B2, “Chemical compounds” (Syngenta Limited, priority 2013, dated 2016)

What was measured:
Assay type in all cases: in vivo
[1] = system: Abutilon theophrasti; assay: Post-emergence herbicidal activity, ABUTH; parameters: key: 5=total damage to plant; 0=no damage to plant; details: 1000 g/Ha, sprayed post-emergence (8 days cultivation), evaluated after 13 days, scale 0-5
Description: (§1) Seeds of a variety of test species were sown in standard soil in pots. After 8 days cultivation (post-emergence) under controlled conditions in a glasshouse (at 24/16° C., day/night; 14 hours light; 65% humidity), the plants were sprayed with an aqueous spray solution derived from the formulation of the technical active ingredient in acetone/water (50:50) solution containing 0.5% Tween 20 (polyoxyethelyene sorbitan monolaurate, CAS RN 9005-64-5). The test plants were then grown in a glasshouse under controlled conditions (at 24/16° C., day/night; 14 hours light; 65% humidity) and watered twice daily. After 13 days, the test was evaluated (5=total damage to plant; 0=no damage to plant).

[2] = system: Setaria faberi; assay: Post-emergence herbicidal activity, SETFA; parameters: key: 5=total damage to plant; 0=no damage to plant; details: 1000 g/Ha, sprayed post-emergence (8 days cultivation), evaluated after 13 days, scale 0-5
Description: as §1

[3] = system: Abutilon theophrasti; assay: Pre-emergence herbicidal activity, ABUTH; parameters: key: 5=total damage to plant; 0=no damage to plant; details: 1000 g/Ha, sprayed pre-emergence, evaluated after 13 days, scale 0-5
Description: as §1, with “After” for “After 8 days”, “for one day (pre-emergence)” for “(post-emergence)”

[4] = system: Echinochloa crus-galli; assay: Post-emergence herbicidal activity, ECHCG; parameters: key: 5=total damage to plant; 0=no damage to plant; details: 1000 g/Ha, sprayed post-emergence (8 days cultivation), evaluated after 13 days, scale 0-5
Description: as §1

[5] = system: Zea mays; assay: Pre-emergence herbicidal activity, ZEAMX; details: 1000 g/Ha, sprayed pre-emergence, evaluated after 13 days, scale 0-5
Description: as §1, with “After” for “After 8 days”, “for one day (pre-emergence)” for “(post-emergence)”

[6] = system: Amaranthus retroflexus; assay: Pre-emergence herbicidal activity, AMARE; parameters: key: 5=total damage to plant; 0=no damage to plant; details: 1000 g/Ha, sprayed pre-emergence, evaluated after 13 days, scale 0-5
Description: as §1, with “After” for “After 8 days”, “for one day (pre-emergence)” for “(post-emergence)”

[7] = system: Alopecurus myosuroides; assay: Post-emergence herbicidal activity, ALOMY; parameters: key: 5=total damage to plant; 0=no damage to plant; details: 1000 g/Ha, sprayed post-emergence (8 days cultivation), evaluated after 13 days, scale 0-5
Description: as §1

[8] = system: Echinochloa crus-galli; assay: Pre-emergence herbicidal activity, ECHCG; parameters: key: 5=total damage to plant; 0=no damage to plant; details: 1000 g/Ha, sprayed pre-emergence, evaluated after 13 days, scale 0-5
Description: as §1, with “After” for “After 8 days”, “for one day (pre-emergence)” for “(post-emergence)”

[9] = system: Zea mays; assay: Post-emergence herbicidal activity, ZEAMX; parameters: key: 5=total damage to plant; 0=no damage to plant; details: 1000 g/Ha, sprayed post-emergence (8 days cultivation), evaluated after 13 days, scale 0-5
Description: as §1

[10] = system: Amaranthus retroflexus; assay: Post-emergence herbicidal activity, AMARE; parameters: key: 5=total damage to plant; 0=no damage to plant; details: 1000 g/Ha, sprayed post-emergence (8 days cultivation), evaluated after 13 days, scale 0-5
Description: as §1

[11] = system: Alopecurus myosuroides; assay: Pre-emergence herbicidal activity, ALOMY; parameters: key: 5=total damage to plant; 0=no damage to plant; details: 1000 g/Ha, sprayed pre-emergence, evaluated after 13 days, scale 0-5
Description: as §1, with “After” for “After 8 days”, “for one day (pre-emergence)” for “(post-emergence)”

[12] = system: Setaria faberi; assay: Pre-emergence herbicidal activity, SETFA; parameters: key: 5=total damage to plant; 0=no damage to plant; details: 1000 g/Ha, sprayed pre-emergence, evaluated after 13 days, scale 0-5
Description: as §1, with “After” for “After 8 days”, “for one day (pre-emergence)” for “(post-emergence)”

Row | SMILES | ABUTH damage score, application post-emergence [1] | SETFA damage score, application post-emergence [2] | ABUTH damage score, application pre-emergence [3] | ECHCG damage score, application post-emergence [4] | ZEAMX damage score, application pre-emergence [5] | AMARE damage score, application pre-emergence [6] | ALOMY damage score, application post-emergence [7] | ECHCG damage score, application pre-emergence [8] | ZEAMX damage score, application post-emergence [9] | AMARE damage score, application post-emergence [10] | ALOMY damage score, application pre-emergence [11] | SETFA damage score, application pre-emergence [12]
1 | CN1CC(O)N(c2cc(C(C)(C)C#N)ncn2)C1=O (stereo not drawn) [Example A2] | 5 | 5 | 4 | 5 | 3 | 5 | 5 | 4 | 3 | 5 | 4 | 5
2 | CN1CC(O)N(c2cc(C(C)(C)F)ncn2)C1=O (stereo not drawn) [Example A22] | 5 | 5 | 5 | 5 | 4 | 5 | 5 | 5 | 5 | 5 | 4 | 5
3 | CN1CC(O)N(c2cc(C(C)(C)C)ncn2)C1=O (stereo not drawn) [Example A1, 3-(6-tert-butylpyrimidin-4-yl)-4-hydroxy-1-methyl-imidazolidin-2-one] | 5 | 5 | 5 | 5 | 4 | 5 | 5 | 5 | 5 | 5 | 4 | 5
4 | CCOC1C(O)N(c2cc(C(C)(C)C)ncn2)C(=O)N1OC (stereo not drawn) [Example A8] | 5 | 5 | 5 | 5 | 1 | 5 | 5 | 5 | 4 | 5 | 5 | 5
5 | CON1C(=O)N(c2cc(C(C)(C)F)ncn2)C(O)C1C (stereo not drawn) [Example A21] | 5 | 5 | 5 | 5 | 3 | 5 | 5 | 4 | 4 | 5 | 3 | 5
6 | CCCC1C(O)N(c2cc(C(C)(C)C)ncn2)C(=O)N1C (stereo not drawn) [Example A17] | 5 | 5 | 4 | 5 | 3 | 5 | 3 | 5 | 4 | 5 | 4 | 5
